Data as given in PubChem BioAssay AID2060620 (Molecular Pharmacology Branch, DTP, NCI, 2025).

System: 328373-195-R-J1-PDC complex spheroids, viability % test/control
Assay: Anticancer human tumor 328373-195-R-J1-PDC patient-derived head and neck squamous carcinoma cell line growth inhibition [CLK]
Details: for IC50: curve of first compound; for viability, T/C: stronger effect = lower value
In short: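 Patient-derived tumor cells grown as complex spheroids with HUVEC endothelial cells and mesenchymal stem cells, treated with drug combinations. Concentrations descend in half-log steps from near clinical Cmax, or from 10 microM if Cmax unknown.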

[1] = second compound 0.0316 µM, first compound 0.0316 µM
[2] = second compound 0.0316 µM, first compound 0.1 µM
[3] = second compound 0.0316 µM, first compound 0.316 µM
[4] = second compound 0.0316 µM, first compound 1 µM
[5] = second compound 0.0316 µM, first compound 3.16 µM
[6] = second compound 0.0316 µM, first compound 10 µM
[7] = second compound 0.1 µM, first compound 0.0316 µM
[8] = second compound 0.1 µM, first compound 0.1 µM
[9] = second compound 0.1 µM, first compound 0.316 µM
[10] = second compound 0.1 µM, first compound 1 µM
[11] = second compound 0.1 µM, first compound 3.16 µM
[12] = second compound 0.1 µM, first compound 10 µM
[13] = second compound 0.316 µM, first compound 0.0316 µM
[14] = second compound 0.316 µM, first compound 0.1 µM
[15] = second compound 0.316 µM, first compound 0.316 µM
[16] = second compound 0.316 µM, first compound 1 µM
[17] = second compound 0.316 µM, first compound 3.16 µM
[18] = second compound 0.316 µM, first compound 10 µM
[19] = second compound 1 µM, first compound 0.0316 µM
[20] = second compound 1 µM, first compound 0.1 µM
[21] = second compound 1 µM, first compound 0.316 µM
[22] = second compound 1 µM, first compound 1 µM
[23] = second compound 1 µM, first compound 3.16 µM
[24] = second compound 1 µM, first compound 10 µM
[25] = second compound 3.16 µM, first compound 0.0316 µM
[26] = second compound 3.16 µM, first compound 0.1 µM
[27] = second compound 3.16 µM, first compound 0.316 µM
[28] = second compound 3.16 µM, first compound 1 µM
[29] = second compound 3.16 µM, first compound 3.16 µM
[30] = second compound 3.16 µM, first compound 10 µM
[31] = second compound 10 µM, first compound 0.0316 µM
[32] = second compound 10 µM, first compound 0.1 µM
[33] = second compound 10 µM, first compound 0.316 µM
[34] = second compound 10 µM, first compound 1 µM
[35] = second compound 10 µM, first compound 3.16 µM
[36] = second compound 10 µM, first compound 10 µM
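Further: spheroids exposed to the agents for 7 days.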

CC(=O)O[C@H]1C(=O)[C@@]2(C)[C@H]([C@H](OC(=O)c3ccccc3)[C@]3(O)C[C@H](OC(=O)[C@H](O)[C@@H](NC(=O)c4ccccc4)c4ccccc4)C(C)=C1C3(C)C)[C@]1(OC(C)=O)CO[C@@H]1C[C@@H]2O + CN1CCN(c2cc(C(=O)Nc3cc4cc(-c5cnn(C)c5)ccc4cn3)ccn2)CC1
IC50 (second compound 0.0316 µM): < 31.6 nM | IC50 (second compound 0.1 µM): < 31.6 nM | IC50 (second compound 0.316 µM): < 31.6 nM | IC50 (second compound 1 µM): < 31.6 nM | IC50 (second compound 3.16 µM): < 31.6 nM | IC50 (second compound 10 µM): < 31.6 nM | viability, T/C [1]: 7.74% | viability, T/C [2]: 4.32% | viability, T/C [3]: 7.3% | viability, T/C [4]: 5.75% | viability, T/C [5]: 9.83% | viability, T/C [6]: 12.9% | viability, T/C [7]: 2.72% | viability, T/C [8]: 2.97% | viability, T/C [9]: 8.34% | viability, T/C [10]: 5.1% | viability, T/C [11]: 7.93% | viability, T/C [12]: 9.97% | viability, T/C [13]: 3.35% | viability, T/C [14]: 5.31% | viability, T/C [15]: 5.81% | viability, T/C [16]: 5.22% | viability, T/C [17]: 5.91% | viability, T/C [18]: 10.6% | viability, T/C [19]: 0.18% | viability, T/C [20]: 0.12% | viability, T/C [21]: 0.12% | viability, T/C [22]: 0.07% | viability, T/C [23]: 0.08% | viability, T/C [24]: 0.07% | viability, T/C [25]: 2.71% | viability, T/C [26]: 0.11% | viability, T/C [27]: 0.12% | viability, T/C [28]: 0.08% | viability, T/C [29]: 0.76% | viability, T/C [30]: 2.99% | viability, T/C [31]: 1.85% | viability, T/C [32]: 1.39% | viability, T/C [33]: 0.15% | viability, T/C [34]: 0.17% | viability, T/C [35]: 2.04% | viability, T/C [36]: 2.05%

CCc1c2c(nc3ccc(O)cc13)-c1cc3c(c(=O)n1C2)COC(=O)[C@]3(O)CC + CN1CCN(c2cc(C(=O)Nc3cc4cc(-c5cnn(C)c5)ccc4cn3)ccn2)CC1
IC50 (second compound 0.0316 µM): < 3.16 nM | IC50 (second compound 0.1 µM): < 3.16 nM | IC50 (second compound 0.316 µM): < 3.16 nM | IC50 (second compound 1 µM): < 3.16 nM | IC50 (second compound 3.16 µM): < 3.16 nM | IC50 (second compound 10 µM): < 3.16 nM | viability, T/C (second compound 0.0316 µM, first compound 0.00316 µM): 12.2% | viability, T/C (second compound 0.0316 µM, first compound 0.01 µM): 1.41% | viability, T/C [1]: 2.09% | viability, T/C [2]: 0.42% | viability, T/C [3]: 0.89% | viability, T/C [4]: 2.49% | viability, T/C (second compound 0.1 µM, first compound 0.00316 µM): 10.9% | viability, T/C (second compound 0.1 µM, first compound 0.01 µM): 2.12% | viability, T/C [7]: 2.78% | viability, T/C [8]: 0.32% | viability, T/C [9]: 1.24% | viability, T/C [10]: 0.18% | viability, T/C (second compound 0.316 µM, first compound 0.00316 µM): 7.1% | viability, T/C (second compound 0.316 µM, first compound 0.01 µM): 3.19% | viability, T/C [13]: 1.44% | viability, T/C [14]: 0.21% | viability, T/C [15]: 0.41% | viability, T/C [16]: 0.05% | viability, T/C (second compound 1 µM, first compound 0.00316 µM): 0.07% | viability, T/C (second compound 1 µM, first compound 0.01 µM): 1.93% | viability, T/C [19]: 2.72% | viability, T/C [20]: 0.03% | viability, T/C [21]: 0.04% | viability, T/C [22]: 0.78% | viability, T/C (second compound 3.16 µM, first compound 0.00316 µM): 0.96% | viability, T/C (second compound 3.16 µM, first compound 0.01 µM): 0.54% | viability, T/C [25]: 0.11% | viability, T/C [26]: 2.41% | viability, T/C [27]: 2.52% | viability, T/C [28]: 0.11% | viability, T/C (second compound 10 µM, first compound 0.00316 µM): 0.51% | viability, T/C (second compound 10 µM, first compound 0.01 µM): 0.1% | viability, T/C [31]: 1.56% | viability, T/C [32]: 0.07% | viability, T/C [33]: 1.03% | viability, T/C [34]: 2.56%

COc1cccc2c1C(=O)c1c(O)c3c(c(O)c1C2=O)CC(O)(C(=O)CO)CC3OC1CC(N)C(O)C(C)O1 (stereo unspecified) + CN1CCN(c2cc(C(=O)Nc3cc4cc(-c5cnn(C)c5)ccc4cn3)ccn2)CC1
IC50 (second compound 0.0316 µM): < 31.6 nM | IC50 (second compound 0.1 µM): < 31.6 nM | IC50 (second compound 0.316 µM): < 31.6 nM | IC50 (second compound 1 µM): < 31.6 nM | IC50 (second compound 3.16 µM): < 31.6 nM | IC50 (second compound 10 µM): < 31.6 nM | viability, T/C [1]: 13.4% | viability, T/C [2]: 8.66% | viability, T/C [3]: 2.1% | viability, T/C [4]: 0.22% | viability, T/C [5]: 2.55% | viability, T/C [6]: 1.06% | viability, T/C [7]: 14.7% | viability, T/C [8]: 5.57% | viability, T/C [9]: 0.44% | viability, T/C [10]: 0.19% | viability, T/C [11]: 0.12% | viability, T/C [12]: 1.87% | viability, T/C [13]: 13.2% | viability, T/C [14]: 2.4% | viability, T/C [15]: 3.38% | viability, T/C [16]: 1.11% | viability, T/C [17]: 0.1% | viability, T/C [18]: 2% | viability, T/C [19]: 1.05% | viability, T/C [20]: 2.51% | viability, T/C [21]: 4.63% | viability, T/C [22]: 0.09% | viability, T/C [23]: 1.51% | viability, T/C [24]: 0.08% | viability, T/C [25]: 0.07% | viability, T/C [26]: 4.11% | viability, T/C [27]: 0.93% | viability, T/C [28]: 0.07% | viability, T/C [29]: 1.76% | viability, T/C [30]: 0.11% | viability, T/C [31]: 0.1% | viability, T/C [32]: 0.75% | viability, T/C [33]: 0.41% | viability, T/C [34]: 0.11% | viability, T/C [35]: 2.76% | viability, T/C [36]: 0.61%
